Calls of active or inactive are those of the source.
How the values were obtained:
Assay type in all cases: functional, organism-based
Mus musculus [1] = test: Anti-hyperglycemic activity in C57BL/6J DIO mouse assessed as reduction in plasma glucose level at 0.3 umol/kg at 120 mins post dose by OGTT; settings: dose 0.3 µM/Kg
Mus musculus [2] = species: Mus musculus; test: Anti-hyperglycemic activity in C57BL/6J DIO mouse assessed as reduction in plasma glucose level incubated for 1 hr by OGTT; settings: dose 1-10 µM/Kg
Mus musculus [3] = test: Anti-hyperglycemic activity in C57BL/6J DIO mouse assessed as reduction in plasma glucose level at 3 to 30 umol/kg measured on day 1 by OGTT; settings: dose 3-30 µM/Kg

Measured: Activity

CCOP(=O)(Cn1ccc(NC(=O)c2cc(Oc3cnc(C(=O)N4CCC4)cn3)cc(OC(C)C)c2)n1)OCC
active: Mus musculus [1] | Mus musculus [2] Dose-Dependent Effect | Mus musculus [3]

Reference: ChEMBL document CHEMBL5046279, “Discovery of a Partial Glucokinase Activator Clinical Candidate: Diethyl ((3-(3-((5-(Azetidine-1-carbonyl)pyrazin-2-yl)oxy)-5-isopropoxybenzamido)-1H-pyrazol-1-yl)methyl)phosphonate (BMS-820132)” (J Med Chem, 2022)
